Measured values taken from patent US11931431B2, “PSMA-targeted radiopharmaceutical for diagnosing and treating prostate cancer” (FUTURECHEM CO., LTD, priority 2018, dated 2024).
Entries after “also recorded” stand apart in the source; their conditions may differ.

Key:
[1] = test system: PSMA^+ PC-3 PIP tumors; experiment: Biodistribution test with mice transplanted with prostate cancer cell lines (gamma counter); format: in vivo, nude mouse; conditions: 5 hours after injection, gamma counter
Experimental: After 270 minutes of [^68Ga]1e and [^68Ga]1g injection, microPET/CT images were obtained for 30 minutes, and then each organ (blood, muscle, fat, heart, lung, liver, spleen, stomach, intestine, kidney, bone and tumor) was extracted and the radioactivity thereof was measured using a gamma counter.

[2] = test system: PSMA^+ PC-3 PIP tumors; experiment: MicroPET/CT imaging of mice transplanted with prostate cancer cell lines; format: in vivo, nude mouse
Experimental: A tumor model was prepared by subcutaneously injecting PSMA^+ PC-3 PIP cells (a human prostate cancer cell line) to the right side of the nude mouse hind leg. Each of the ^68Ga-labeled compounds [^68Ga]1e, [^68Ga]1g, [^68Ga]1h and [^68Ga]1k was intravenously injected with 5.5 to 6.5 MBq (148-175 μCi/200 μL), and PET/CT images were obtained using small animal INVEON PET/CT (Siemens medical solutions, Knoxville, USA) for 60 minutes. After 150 minutes, 270 minutes, and 390 minutes, PET/CT images were also obtained for 30 minutes. The obtained PET/CT image results were quantitatively analyzed using Inveon™ Research Workplace (IRW).
FIGS. 1, 2, 3, and 4 are graphs showing the quantitative analysis results of MicorPET/CT images for [^68Ga]1e, [^68Ga]1g, [^68Ga]1h, and [^68Ga]1k in % injected dose (ID)/g, and summarized in Tables 3, 4, 5, and 6, respectively.

[3] = Measurement of lipophilicity (log P), n-octanol/PBS; format: physicochemical; conditions: mean of 3
Experimental: Each of the [^68Ga]1 compounds (1˜2 mci) synthesized in Example 14 was transferred into a vial, and the solvent was removed, to which 1 mL of n-octanol and 1 mL of PBS were added, and the lid was well closed, followed by mixing with a vortex for 1 minute. After the layers were separated, 0.1 mL was taken from each layer and the radiation dose was measured. The radiation dose was measured by repeating 3 times, and the mean value was obtained.

Compound: O=C(O)CCC(NC(=O)NC(CCCCN(CC(=O)O)C(=O)COCCOCCNC(=O)CN1CCN2CCN3CCN(CC1)CC(=O)[O][68Ga]([O]C(=O)C2)[O]C(=O)C3)C(=O)O)C(=O)O (stereo not drawn) [[^68Ga]1e]
- Radioactivity in mouse organ: Blood [1]: 0.01 ± 0.00 % ID/g
- Radioactivity in mouse organ: Bone [1]: 0.00 ± 0.00 % ID/g
- Radioactivity in mouse organ: Fat [1]: 0.01 ± 0.00 % ID/g
- Radioactivity in mouse organ: Heart [1]: 0.01 ± 0.00 % ID/g
- Radioactivity in mouse organ: Intestine [1]: 0.09 ± 0.08 % ID/g
- Radioactivity in mouse organ: Kidney [1]: 0.82 ± 0.51 % ID/g
- Radioactivity in mouse organ: Liver [1]: 0.02 ± 0.01 % ID/g
- Radioactivity in mouse organ: Lung [1]: 0.02 ± 0.01 % ID/g
- Radioactivity in mouse organ: Muscle [1]: 0.01 ± 0.00 % ID/g
- Radioactivity in mouse organ: PSMA + PIP (tumor intake rate) [1]: 7.34 ± 5.49 % ID/g
- Radioactivity in mouse organ: Spleen [1]: 0.01 ± 0.00 % ID/g
- Radioactivity in mouse organ: Stomach [1]: 0.02 ± 0.02 % ID/g
- intake of mouse organ: Bladder ([2]; 10 min after injection): 19.37 ± 0.32 % ID/g
- intake of mouse organ: Kidney ([2]; 10 min after injection): 21.37 ± 9.18 % ID/g
- intake of mouse organ: Liver ([2]; 10 min after injection): 4.76 ± 0.42 % ID/g
- intake of mouse organ: Muscle ([2]; 10 min after injection): 1.46 ± 0.14 % ID/g
- intake of mouse organ: Tumor (PIP) ([2]; 10 min after injection): 2.33 ± 0.36 % ID/g
- intake of mouse organ: Bladder ([2]; 20 min after injection): 47.31 ± 7.34 % ID/g
- intake of mouse organ: Kidney ([2]; 20 min after injection): 10.96 ± 4.32 % ID/g
- intake of mouse organ: Liver ([2]; 20 min after injection): 1.96 ± 0.22 % ID/g
- intake of mouse organ: Muscle ([2]; 20 min after injection): 1.38 ± 0.11 % ID/g
- intake of mouse organ: Tumor (PIP) ([2]; 20 min after injection): 3.64 ± 0.49 % ID/g
- intake of mouse organ: Bladder ([2]; 30 min after injection): 55.82 ± 12.46 % ID/g
- intake of mouse organ: Kidney ([2]; 30 min after injection): 10.88 ± 7.09 % ID/g
- intake of mouse organ: Liver ([2]; 30 min after injection): 1.29 ± 0.05 % ID/g
- intake of mouse organ: Muscle ([2]; 30 min after injection): 0.95 ± 0.13 % ID/g
- intake of mouse organ: Tumor (PIP) ([2]; 30 min after injection): 4.08 ± 0.60 % ID/g
- intake of mouse organ: Bladder ([2]; 40 min after injection): 60.63 ± 15.48 % ID/g
- intake of mouse organ: Kidney ([2]; 40 min after injection): 14.92 ± 13.57 % ID/g
- intake of mouse organ: Liver ([2]; 40 min after injection): 1.00 ± 0.03 % ID/g
- intake of mouse organ: Muscle ([2]; 40 min after injection): 0.61 ± 0.05 % ID/g
- intake of mouse organ: Tumor (PIP) ([2]; 40 min after injection): 4.44 ± 0.48 % ID/g
- intake of mouse organ: Bladder ([2]; 50 min after injection): 64.24 ± 12.76 % ID/g
- intake of mouse organ: Kidney ([2]; 50 min after injection): 15.84 ± 15.60 % ID/g
- intake of mouse organ: Liver ([2]; 50 min after injection): 0.80 ± 0.02 % ID/g
- intake of mouse organ: Muscle ([2]; 50 min after injection): 0.53 ± 0.05 % ID/g
- intake of mouse organ: Tumor (PIP) ([2]; 50 min after injection): 4.56 ± 1.03 % ID/g
- intake of mouse organ: Bladder ([2]; 60 min after injection): 67.80 ± 8.56 % ID/g
- intake of mouse organ: Kidney ([2]; 60 min after injection): 15.72 ± 16.29 % ID/g
- intake of mouse organ: Liver ([2]; 60 min after injection): 0.65 ± 0.04 % ID/g
- intake of mouse organ: Muscle ([2]; 60 min after injection): 0.35 ± 0.05 % ID/g
- intake of mouse organ: Tumor (PIP) ([2]; 60 min after injection): 4.73 ± 0.98 % ID/g
- intake of mouse organ: Bladder ([2]; 150 min after injection): 31.85 ± 35.57 % ID/g
- intake of mouse organ: Kidney ([2]; 150 min after injection): 0.70 ± 0.02 % ID/g
- intake of mouse organ: Liver ([2]; 150 min after injection): 0.06 ± 0.01 % ID/g
- intake of mouse organ: Muscle ([2]; 150 min after injection): 0.02 ± 0.01 % ID/g
- intake of mouse organ: Tumor (PIP) ([2]; 150 min after injection): 4.20 ± 0.42 % ID/g
- intake of mouse organ: Bladder ([2]; 270 min after injection): 1.45 ± 1.62 % ID/g
- intake of mouse organ: Kidney ([2]; 270 min after injection): 0.41 ± 0.16 % ID/g
- intake of mouse organ: Liver ([2]; 270 min after injection): 0.03 ± 0.01 % ID/g
- intake of mouse organ: Muscle ([2]; 270 min after injection): 0.01 ± 0.01 % ID/g
- intake of mouse organ: Tumor (PIP) ([2]; 270 min after injection): 4.05±0.64 % ID/g
- excretion, in words ([2]; MicroPET/CT): rapidly excreted through the kidney and bladder; also recorded: rapidly excreted out of the body
- logP [3]: −2.88
